The source of these data is DBAASP.

As usually defined, the MIC is the least concentration at which growth counts as inhibited. Higher therefore signals weaker potency.

Test systems include Cryptococcus neoformans; Sporothrix schenckii; Escherichia coli; Escherichia coli JW3441; Escherichia coli JW5831; Escherichia coli MG1655.
What all share (experiment): ≥ marks a high value that may be exact or a test limit, other limits are often not marked, values filed in µg/mL are converted to µM
For assay [1], the system named is Bacillus subtilis ATCC 6633.
The test system of assay [2] is Candida albicans ATCC 10231.
Assay [3] relates to Candida parapsilosis ATCC 22019.
For assay [4], the system named is Escherichia coli ATCC 9637.
Assay [5] concerns Klebsiella pneumoniae ATCC 27736.
Assay [6] has as its system Pseudomonas aeruginosa ATCC BAA-427.
For assay [7], the system named is Staphylococcus aureus ATCC 25923.
The test system of assay [8] is Staphylococcus aureus ATCC 29213.
Assay [9] has as its system Staphylococcus aureus ATCC 33592.
The subject of assay [10] is Staphylococcus aureus ATCC 700698.
The test system of assay [11] is Staphylococcus aureus ATCC 700699.
Assay [12] concerns Staphylococcus aureus ATCC BAA-44.
In assay [13] the test system is Escherichia coli ATCC 11775.
Assay [14] concerns Escherichia coli ATCC 25922.
Assay [15] deals with Escherichia coli ATCC 35218.
The test system of assay [16] is Salmonella enterica subsp. enterica serovar Typhi Vi+.
Assay [17] has as its system Salmonella enterica subsp. enterica serovar Typhimurium ATCC 14028.
Assay [18] relates to Candida albicans CPCC 400416.
The subject of assay [19] is Escherichia coli CPCC 100521.
Assay [20] has as its system Staphylococcus aureus CPCC 100520.
Assay [21] concerns Escherichia coli DH5alpha.
The test system of assay [22] is Pseudomonas aeruginosa ATCC 27853.
Assay [23] relates to Pseudomonas aeruginosa H188.

≈ marks a conversion by molar mass, not a printed value. Bounds are passed on as bounds.

In the case of `CC[C@H](C)[C@H](NC(=O)[C@H](C)NC(=O)[C@H](CCCCN)NC(=O)[C@@H]1CCCN1C(=O)[C@H](C)NC(=O)[C@H](Cc1cnc[nH]1)NC(=O)[C@@H](NC(=O)[C@H](C)NC(=O)CNC(=O)[C@H](CCCCN)NC(=O)[C@@H](NC(=O)[C@H](CC(C)C)NC(=O)[C@H](Cc1c[nH]c2ccccc12)NC(=O)CNC(=O)[C@H](Cc1ccccc1)NC(=O)[C@@H](N)Cc1ccccc1)[C@@H](C)CC)[C@@H](C)CC)C(=O)N[C@@H](Cc1cnc[nH]1)C(=O)NCC(=O)N[C@@H](CC(C)C)C(=O)N[C@H](C(=O)N[C@@H](Cc1cnc[nH]1)C(=O)N[C@@H](CCCN=C(N)N)C(=O)N[C@@H](CCCN=C(N)N)C(=O)N[C@@H](CCCN=C(N)N)C(=O)N[C@@H](Cc1cnc[nH]1)C(=O)O)[C@@H](C)CC` [FFGWLIKGAIHAPKAIHGLIHRRRH], the minimum inhibitory concentration (MIC) in assay [1] amounted to 3 µM (≈ 8.8 µg/mL); in [2], 13.6 µM (≈ 39.9 µg/mL); in assay [3], 6.8 µM (≈ 19.9 µg/mL); in the assay on Cryptococcus neoformans, 13.6 µM (≈ 39.9 µg/mL); in assay [4], 3 µM (≈ 8.8 µg/mL); in assay [5], 6.8 µM (≈ 19.9 µg/mL). Further, the MIC was 6.8 µM (≈ 19.9 µg/mL) in assay [6]; 27.2 µM (≈ 79.8 µg/mL) with Sporothrix schenckii; 3 µM (≈ 8.8 µg/mL) in assay [7]; 1.6 µM (≈ 4.69 µg/mL) in [8]; 1.6 µM (≈ 4.69 µg/mL) in [9]; 3 µM (≈ 8.8 µg/mL) in assay [10]. For the same compound, the MIC in [11] and in assay [12] was 1.6 µM (≈ 4.69 µg/mL) each time.

In the case of `CC[C@H](C)[C@H](NC(=O)[C@@H]1CCCN1C(=O)[C@H](CCCN=C(N)N)NC(=O)[C@@H]1CCCN1C(=O)[C@H](Cc1cnc[nH]1)NC(=O)[C@H](CO)NC(=O)[C@@H](NC(=O)[C@@H]1CCCN1C(=O)[C@H](CCCCN)NC(=O)[C@@H]1CCCN1C(=O)[C@H](CO)NC(=O)[C@H](Cc1ccc(O)cc1)NC(=O)[C@@H]1CCCN1C(=O)[C@H](CCCN=C(N)N)NC(=O)[C@@H]1CCCN1C(=O)[C@H](CCCCN)NC(=O)CN)[C@@H](C)O)C(=O)N[C@@H](CCCN=C(N)N)C(=O)N[C@H](C(=O)O)C(C)C` [GKPRPYSPKPTSHPRPIRV], the MIC was found to be 3 µM (≈ 6.51 µg/mL) in assay [13]; 3.5 µM (≈ 7.6 µg/mL) in [14]; 2 µM (≈ 4.34 µg/mL) in assay [15]; 10 µM (≈ 21.7 µg/mL) in assay [16]; 10 µM (≈ 21.7 µg/mL) in [17].

In the case of `CC[C@H](C)[C@H](N)C(=O)N[C@H](C(=O)NCC(=O)N1CCC[C@H]1C(=O)N[C@H](C(=O)N[C@@H](CC(C)C)C(=O)NCC(=O)N[C@@H](CC(C)C)C(=O)N[C@H](C(=O)NCC(=O)N[C@@H](CCCCN)C(=O)N[C@@H](C)C(=O)N[C@@H](CC(C)C)C(=O)NCC(=O)NCC(=O)N[C@@H](CC(C)C)C(=O)N[C@@H](CC(C)C)C(N)=O)C(C)C)C(C)C)[C@@H](C)CC` [IIGPVLGLVGKALGGLL], the MIC in [18], in [19] and in assay [20] was ≥ 161 µM throughout.

Consider `CC[C@H](C)[C@H](NC(=O)[C@H](C)NC(=O)[C@H](CCCCN)NC(=O)[C@H](CC(C)C)NC(=O)[C@H](C)NC(=O)[C@@H](NC(=O)[C@H](Cc1cnc[nH]1)NC(=O)[C@H](CC(C)C)NC(=O)[C@H](CCC(=O)O)NC(=O)[C@@H](NC(=O)[C@H](CCCCN)NC(=O)[C@H](CCCCN)NC(=O)[C@H](C)NC(=O)[C@H](CO)NC(=O)[C@H](CCCCN)NC(=O)[C@H](Cc1ccccc1)NC(=O)[C@@H](NC(=O)[C@H](CCCCN)NC(=O)[C@H](CC(C)C)NC(=O)[C@H](Cc1ccccc1)NC(=O)[C@H](CO)NC(=O)[C@H](CCCCN)NC(=O)[C@H](Cc1c[nH]c2ccccc12)NC(=O)[C@H](CCCCN)NC(C)=O)[C@@H](C)O)[C@@H](C)O)[C@@H](C)O)C(=O)N[C@@H](CO)C(=O)N[C@@H](CO)C(N)=O` [KWKSFLKTFKSAKKTELHTALKAISS], for which the MIC in [14] is 5.37 µM (≈ 16.2 µg/mL); in assay [21], 21.5 µM (≈ 64.9 µg/mL); in the assay with Escherichia coli it was 42 µM (≈ 127 µg/mL); in assay [22], 42 µM (≈ 127 µg/mL); in [23], 21.5 µM (≈ 64.9 µg/mL).

For `CC[C@H](C)[C@H](NC(=O)[C@H](CCCCN)NC(=O)CNC(=O)[C@H](CC(C)C)NC(=O)[C@H](CC(C)C)NC(=O)[C@H](Cc1cnc[nH]1)NC(=O)[C@H](Cc1ccccc1)NC(=O)[C@@H](N)C(C)C)C(=O)N[C@H](C(=O)N[C@@H](Cc1cnc[nH]1)C(=O)N[C@@H](Cc1cnc[nH]1)C(=O)N[C@H](C(=O)NCC(=O)N[C@@H](CC(N)=O)C(=O)N[C@@H](Cc1ccccc1)C(=O)N[C@H](C(=O)N[C@@H](Cc1ccc(O)cc1)C(=O)NCC(=O)N[C@@H](Cc1ccccc1)C(=O)N[C@@H](CO)C(=O)N[C@@H](Cc1cnc[nH]1)C(=O)N[C@H](C(=O)N[C@@H](Cc1ccccc1)C(N)=O)C(C)C)C(C)C)C(C)C)[C@@H](C)CC` [VFHLLGKIIHHVGNFVYGFSHVF], the MIC in the assay with Escherichia coli JW3441, in the assay on Escherichia coli JW5831 and against Escherichia coli MG1655 was 4 µM (≈ 10.7 µg/mL) each time.
